Results on 21 substances are retold here after US20120065103A1, “Prolyl Endopeptidase Probes” (priority 2010, published 2012).

The test system of assay [1] is BALF proteases (prolyl endopeptidase activity). The assay can be described thus: IQFP protease substrate profiling of BALF from infected and uninfected guinea pigs (Table 1). Particulars: for FI infected / Fold infected: infected guinea pig BALF; for Fold enhancement: infected vs uninfected guinea pig BALF; for FI uninfected / Fold uninfected: uninfected guinea pig BALF. The format is biochemical, guinea pig. The text has this: Methods: The substrate specificity of AF in vitro culture supernatant was profiled with a combinatorial IQFP library in comparison with human serum to identify fungus-specific substrates. An established guinea pig model of IA was used to collect BALF during active disease for in vivo protease substrate profiling.
(§1) Methods: Guinea pig inhalation model comprises neutropenia by cortisone acetate and cyclophosphamide (days −2 and +3), 1.2×10^8 conidia/mL nebulized AF in inhalation chamber, and serum and BALF obtained at predetermined time points; Vallor et al. Antimicrob. Ag. Chemother. 2008, 52.

In assay [2] the test system is Aspergillus fumigatus infected and uninfected guinea pig broncheoaveolar lavage fluid. Briefly: Screening probes against Aspergillus fumigatus infected and uninfected guinea pig BALF (Table 2). The format is biochemical.
Description: as §1
Table 2 Legend. Variable region (Xaa—Yaa—Zaa) of the top 6 peptide probes are all listed in single amino acid code; AF293 and CEA10 are the two strains of Aspergillus fumigatus infected guinea pig BALF samples screened in this study.
N stands for number of guinea pig BALF samples screened against the given peptide probe. Guinea pig infected and uninfected samples with very low background (t=0 hour) and end point values (t=6 hour) (i.e., no greater than 100 units difference between t=0 hour and t=6 hour) were not selected for the statistical calculations.
Mean fold change values is the average of fluorescence fold change calculated for each guinea pig sample screened against respective peptide probe. Fluorescence fold change values are calculated according to the formula:
Fold Change=Fluorescence measured at time t=6 hour/Fluorescence measured at time t=0 hour.
* Fold change values for these peptide probes were calculated at time t=3 hour as the end point value.
SD corresponds to standard deviation calculated for the given probe screened against the respective BALF sample.
Percentage fluorescence efficiency (% FE) is calculated for each probe as follows, % FE=100 * [(Fold changeInfected BALF-Fold changeUninfected BALF)/Fold changeuninfected BALF] Fold change values are all the mean fold change values.
P values are calculated with two tailed student t-test with two sample unequal variance for each peptide probe screened against respective infected and uninfected BALF samples. […]

[3] abbreviates: strain AF293, t=6 hour vs t=0 hour.
Setting [4] is: strain AF293 series, t=6 hour vs t=0 hour.
[5] abbreviates: strain CEA10, t=6 hour vs t=0 hour.
The mark [6] stands for this setting: strain CEA10 series, t=6 hour vs t=0 hour.
Where [7] appears, read: strain AF293, end point t=3 hour.
Setting [8] is: strain AF293, end point t=3 hour vs t=0 hour.
Setting [9] is: strain AF293 series, end point t=3 hour vs t=0 hour.
Where [10] appears, read: strain CEA10, end point t=3 hour.
[11] abbreviates: strain CEA10, end point t=3 hour vs t=0 hour.
Setting [12] is: strain CEA10 series, end point t=3 hour vs t=0 hour.

With MeOCGly-G-G-P-A/V-N/Q-G-G-Dap(Dnp)-K-K, in assay [1], the FI infected came out at 325, the Fold infected amounted to 2.18, the Fold enhancement came out at 2.13 and the FI uninfected was 188. This substance also showed a Fold uninfected in assay [1] of 1.02.

For MeOCGly-G-G-P-A/V-P-G-G-Dap(Dnp)-K-K, in assay [1], the FI infected amounted to 488, the Fold infected amounted to 2.85, the Fold enhancement is listed as 2.62 and the FI uninfected was 234. Further, the Fold uninfected in assay [1] is 1.09.

For the substance MeOCGly-G-G-P-D/E-K/R-G-G-Dap(Dnp)-K-K, in assay [1], the FI infected is on record as 161, the Fold infected is reported as 1.64, the Fold enhancement is on record as 2.02 and the FI uninfected came out at 118. The same substance gave a Fold uninfected in assay [1] of 0.81.

Consider MeOCGly-G-G-P-D/E-P-G-G-Dap(Dnp)-K-K, for which, in assay [1], the FI infected came out at 349, the Fold infected was found to be 2.3, the Fold enhancement came out at 2.31 and the FI uninfected is reported as 213. In addition, the Fold uninfected in assay [1] amounted to 1.

As for MeOCGly-G-G-P-F/Y-A/V-G-G-Dap(Dnp)-K-K, in assay [1], the FI infected amounted to 493, the Fold infected is listed as 3.06, the Fold enhancement came to 2.04 and the FI uninfected amounted to 294. Moreover, the Fold uninfected in assay [1] stood at 1.5.

In the case of MeOCGly-G-G-P-F/Y-K/R-G-G-Dap(Dnp)-K-K, in assay [1], the FI infected stood at 238, the Fold infected was 2.09, the Fold enhancement is reported as 2.06 and the FI uninfected is 151. The substance also returned a Fold uninfected in assay [1] of 1.01.

As to MeOCGly-G-G-P-F/Y-N/Q-G-G-Dap(Dnp)-K-K, in assay [1], the FI infected was 286, the Fold infected is on record as 2.8, the Fold enhancement came to 2.15 and the FI uninfected was found to be 154. Besides, the Fold uninfected in assay [1] turned out to be 1.31.

Turning to MeOCGly-G-G-P-F/Y-P-G-G-Dap(Dnp)-K-K, in assay [1], the FI infected was found to be 424, the Fold infected is reported as 4.71, the Fold enhancement is recorded as 4.07 and the FI uninfected is on record as 124. The Fold uninfected in assay [1] was determined as 1.16.

Regarding MeOCGly-G-G-P-I/L-P-G-G-Dap(Dnp)-K-K, in assay [1], the FI infected amounted to 474, the Fold infected was 2.74, the Fold enhancement turned out to be 2.21 and the FI uninfected was 223. The Fold uninfected in assay [1] was 1.24.

With MeOCGly-G-G-P-K/R-P-G-G-Dap(Dnp)-K-K, in assay [1], the FI infected is listed as 498, the Fold infected is reported as 2.88, the Fold enhancement came to 2.37 and the FI uninfected was 213. For the same substance, the Fold uninfected in assay [1] is 1.22.

On to MeOCGly-G-G-P-N/Q-A/V-G-G-Dap(Dnp)-K-K, for which, in assay [1], the FI infected amounted to 394, the Fold infected is given as 4.02, the Fold enhancement is 3.33 and the FI uninfected worked out at 151. The substance further gave a Fold uninfected in assay [1] of 1.21.

MeOCGly-G-G-P-N/Q-P-G-G-Dap(Dnp)-K-K: in assay [1], the FI infected was 598, the Fold infected is on record as 3.93, the Fold enhancement was found to be 2.76 and the FI uninfected is given as 261. In assay [1], this substance gave a Fold uninfected of 1.43.

Regarding MeOCGly-G-G-P-S/T-A/V-G-G-Dap(Dnp)-K-K, in assay [1], the FI infected came out at 467, the Fold infected is recorded as 4.28, the Fold enhancement came out at 2.39 and the FI uninfected was determined as 176. In addition, the Fold uninfected in assay [1] stood at 1.8.

With MeOCGly-G-G-P-S/T-F/Y-G-G-Dap(Dnp)-K-K, in assay [1], the FI infected turned out to be 397, the Fold infected turned out to be 3.31, the Fold enhancement came to 3.08 and the FI uninfected came to 146. Also, the Fold uninfected in assay [1] was determined as 1.07.

With MeOCGly-G-G-P-S/T-P-G-G-Dap(Dnp)-K-K, in assay [1], the FI infected was 665, the Fold infected turned out to be 3.63, the Fold enhancement amounted to 2.81 and the FI uninfected is on record as 277. In assay [1], the Fold uninfected turned out to be 1.29.

With MeOCGly-GGPFPGG Dap(DNP)KK-NH2, the “% FE (percentage fluorescence efficiency)” value in assay [2] (strain AF293, t=6 hour) stood at 227.09%; in assay [2] (strain CEA10, t=6 hour), 326.24%. Also, the “Mean Fold change, Infected BALF” value in assay [2] (setting [3]) is 6.58; in assay [2] (setting [5]) it was 12.44. The figures for the “Mean Fold Change, Uninfected BALF” value in assay [2] (setting [4]) and in assay [2] (setting [6]) were 2.01 and 2.92, respectively.

Regarding MeOCGly-GGPHPGG Dap(DNP)KK-NH2, the “% FE (percentage fluorescence efficiency)” value in assay [2] (strain AF293, t=6 hour) is given as 219.69%; in assay [2] (strain CEA10, t=6 hour), 217.59%. The figures for the “Mean Fold change, Infected BALF” value in assay [2] (setting [3]) and in assay [2] (setting [5]) were 4.47 and 10.61, respectively. The “Mean Fold Change, Uninfected BALF” value in assay [2] (setting [4]) came to 1.40; in assay [2] (setting [6]), 3.34.

On to MeOCGly-GGPNPGG Dap(DNP)KK-NH2, for which the “% FE (percentage fluorescence efficiency)” value was 274.00% in assay [2] (setting [7]) and 252.39% in assay [2] (setting [10]). For the same substance, the entries for the “Mean Fold change, Infected BALF” value in assay [2] (setting [8]) and in assay [2] (setting [11]) were 5.68 and 13.68, respectively. The “Mean Fold Change, Uninfected BALF” value in assay [2] (setting [9]) worked out at 1.52; in assay [2] (setting [12]) it was 3.88.

Turning to MeOCGly-GGPNPNPGG Dap(DNP)KK-NH2, the “% FE (percentage fluorescence efficiency)” value was 355.02% in assay [2] (strain AF293, t=6 hour) and 111.20% in assay [2] (strain CEA10, t=6 hour). The “Mean Fold change, Infected BALF” value in assay [2] (setting [3]) is reported as 13.47; in assay [2] (setting [5]), 8.72. In addition, the “Mean Fold Change, Uninfected BALF” value in assay [2] (setting [4]) came to 2.96; in assay [2] (setting [6]), 4.13.

With MeOCGly-GGPSPGG Dap(DNP)KK-NH2, the “% FE (percentage fluorescence efficiency)” value in assay [2] (strain AF293, t=6 hour) is 309.39%; in assay [2] (strain CEA10, t=6 hour), 142.55%. Further, the “Mean Fold change, Infected BALF” value in assay [2] (setting [3]) was 12.49; in assay [2] (setting [5]), 11.00. Further, the “Mean Fold Change, Uninfected BALF” value in assay [2] (setting [4]) is given as 3.05; in assay [2] (setting [6]) it was 4.54.

As to MeOCGly-GGPYPGG Dap(DNP)KK-NH2, the “% FE (percentage fluorescence efficiency)” value worked out at 203.00% in assay [2] (setting [7]) and 310.44% in assay [2] (setting [10]). Also, the “Mean Fold change, Infected BALF” value in assay [2] (setting [8]) is 5.42; in assay [2] (setting [11]), 14.62. The “Mean Fold Change, Uninfected BALF” value in assay [2] (setting [9]) is listed as 1.79; in assay [2] (setting [12]), 3.56.
